One assay concerns the target T1, cloned human glucagon receptor (Homo sapiens, UniProt P47871).
T1 construct: expressed in transfected cells; plasma membrane preparation
Nature of the assay: Glucagon Binding Assay (II). The conditions noted are these: plasma membranes of BHK cells expressing the receptor; read-out: Glu Bd Assay (II) IC50.
T1 sequence (P47871 26-477): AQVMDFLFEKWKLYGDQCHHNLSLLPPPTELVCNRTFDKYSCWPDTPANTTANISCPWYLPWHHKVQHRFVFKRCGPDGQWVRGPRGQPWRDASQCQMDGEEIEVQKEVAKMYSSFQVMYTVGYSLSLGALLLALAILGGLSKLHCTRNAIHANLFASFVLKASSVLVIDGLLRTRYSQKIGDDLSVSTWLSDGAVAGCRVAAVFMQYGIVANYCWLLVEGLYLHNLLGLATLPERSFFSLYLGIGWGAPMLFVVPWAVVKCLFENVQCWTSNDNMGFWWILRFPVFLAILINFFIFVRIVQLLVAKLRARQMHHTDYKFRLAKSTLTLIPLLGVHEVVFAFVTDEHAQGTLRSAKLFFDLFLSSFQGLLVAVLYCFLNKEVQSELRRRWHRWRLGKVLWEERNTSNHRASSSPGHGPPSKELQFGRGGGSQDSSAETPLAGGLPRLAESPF
For the molecule `CC(C)(C)C1CCC(N(Cc2ccc(C(=O)NCCC(=O)O)cc2)C(=O)Nc2ccc(Cl)c(C(F)(F)F)c2)CC1` (stereo not shown) [Example 236], the IC50 came to 29 nM.

With `CC(C)(C)[C@H]1CC[C@H](N(Cc2ccc(C(=O)NCCC(=O)O)cc2)C(=O)c2ccc(OC(F)(F)F)cc2)CC1` [Example 586, 3-(4-{[(trans-4-tert-Butylcyclohexyl)-(4-trifluoromethoxybenzoyl)amino]methyl}benzoylamino)propionic acid], the 50% inhibitory concentration (IC50) is 874 nM. The same measure, in the same setting: for `O=C(O)CCNC(=O)c1ccc(CN(C(=O)NCc2cc(Cl)cc(Cl)c2)c2ccc(C3CCCCC3)cc2)cc1` [Example 395, 3-{4-[1-(4-Cyclohexylphenyl)-3-(3,5-dichlorobenzyl)ureidomethyl]benzoylamino}propionic acid] the value was 153 nM; for `O=C(O)CCNC(=O)c1ccc(CN(Cc2ccc(OC(F)(F)F)cc2)c2ccc(C3CCCCC3)cc2)cc1` [Example 386, 3-(4-{[(4-Cyclohexylphenyl)-(4-trifluoromethoxybenzyl)amino]methyl}benzoylamino)propionic acid], 102 nM. On the same count and under the same terms, to `CCCCOC(=O)c1ccc(NC(=O)N(Cc2ccc(C(=O)NCCC(=O)O)cc2)CC2CCCCC2)cc1` belongs 264 nM; to `CC(C)(C)C1CCC(N(Cc2ccc(C(=O)NCCC(=O)O)cc2)C(=O)Nc2ccc3ccccc3c2)CC1` (stereo not shown) [Example 102, 3-{4-[1-(4-tert-Butylcyclohexyl)-3-naphthalen-2-ylureidomethyl]benzoylamino)propionic acid], 167 nM. Still for that read-out and setting: for `CC(C)(C)C1CCC(N(Cc2ccc(C(=O)NCCC(=O)O)cc2)NC(=O)c2ccc(OC(F)(F)F)cc2)CC1` (stereo not shown) [drawing 1171] the value was 108 nM. In the case of `CCCCOc1ccc(C(=O)NN(Cc2ccc(C(=O)NCCC(=O)O)cc2)C2Cc3ccccc3C2)cc1` [Example 587, 3-{4-[N′-(4-Butoxybenzoyl)-N-indan-2-ylhydrazinomethyl]benzoylamino}propionic acid], the 50% inhibitory concentration (IC50) turned out to be 692 nM. For `CC(C)(C)[C@H]1CC[C@H](N(Cc2ccc(C(=O)NCCC(=O)O)cc2)C(=O)Nc2ccc(SC(F)(F)F)cc2)CC1` [Example 235], the 50% inhibitory concentration (IC50) came out at 14 nM. Still for that read-out and setting: for `CC(C)(C)C1CCC(N(Cc2ccc(CNc3nn[nH]n3)cc2)C(=O)Nc2ccc(OC(F)(F)F)cc2)CC1` (mixture of isomers) [Example 579, 1-(4-tert-Butylcyclohexyl)-1-{4-[(2H-tetrazol-5-ylamino)methyl]benzyl}-3-(4-trifluoromethoxyphenyl)urea] the value was 242 nM. Same read-out and setting: to `COC(=O)CCNC(=O)c1ccc(CN(C(=O)Nc2cc(C(F)(F)F)cc(C(F)(F)F)c2)C2CCC(C(C)(C)C)CC2)cc1` (stereo not shown) belongs 101 nM. For `CCCCOC(=O)c1ccc(NC(=O)N(Cc2ccc(C(=O)NCCC(=O)O)cc2)C2CCCC(C)C2)cc1` (stereo not shown), the IC50 is 278 nM. In the case of `O=C(O)CCNC(=O)c1ccc(CN(C(=O)NCc2ccc(Cl)c(Cl)c2)c2ccc(C3CCCCC3)cc2)cc1` [Example 606, 3-{4-[1-(4-Cyclohexylphenyl)-3-(3,4-dichlorobenzyl)ureidomethyl]benzoylamino}propionic acid], the IC50 is 98 nM. As for `CC(C)(C)[C@H]1CC[C@@H](N(Cc2ccc(C(=O)NCCC(=O)O)cc2)NC(=O)c2cc(Cl)cc(Cl)c2)CC1` [Example 588, 3-{4-[N-(cis-4-tert-Butylcyclohexyl)-N′-(3,5-dichlorobenzoyl)hydrazinomethyl]benzoylamino}propionic acid], the IC50 amounted to 75 nM.

Turning to `O=C(O)CCNC(=O)c1ccc(CN(Cc2cccc(Cl)c2)Cc2cccc(Cl)c2)cc1` [Example 154, 3-(4-{[Bis-(3-chlorobenzyl)amino]methyl}benzoylamino)propionic acid], the half-maximal inhibitory concentration (IC50) stood at 167 nM. Consider `O=C(O)CCNC(=O)c1ccc(CN(C(=O)Nc2ccc(OC(F)(F)F)cc2)C2CC2c2ccccc2)cc1` (stereo not shown) [Example 231, 3-{4-[1-(2-Phenylcyclopropyl)-3-(4-trifluoromethoxyphenyl)ureidomethyl]benzoylamino}propionic acid], for which the 50% inhibitory concentration (IC50) came out at 349 nM.

The assay is the same for the next values; noted with them: screened at 1 μM; library compounds; read-out: displacement of the glucagon tracer when screened at 1 μM concentration in the glucagon binding assay II.
Consider `CCCCOc1ccc(NC(=O)N(Cc2ccc(C(=O)NCCC(=O)O)cc2)Cc2ccc(C(F)(F)F)cc2)cc1` [Example 119, 3-{4-[1-(4-Trifluoromethylbenzyl)-3-(4-butoxyphenyl)ureidomethyl]benzoylamino)propionic acid], for which the inhibition at 1 µM was above 50%. The same measure, in the same setting: for `CC(C)(C)C1CCC(N(Cc2ccc(OCCCC(=O)O)cc2)C(=O)Nc2ccc(C(=O)O)cc2)CC1` (stereo not shown) [Example 226, 4-{3-(4-tert-Butylcyclohexyl)-3-[4-(3-carboxypropoxy)benzyl]ureido}benzoic acid] the value was above 50%; for `O=C(O)CCNC(=O)c1ccc(CN(CCc2cccc(Cl)c2)C(=O)Nc2ccc(Cl)c(C(F)(F)F)c2)cc1` [Example 181, 3-{4-[1-[2-(3-Chlorophenyl)ethyl]-3-(4-chloro-3-trifluoromethylphenyl)ureidomethyl]benzoylamino}propionic acid], above 50%.

Take `O=C(O)CCNC(=O)c1ccc(CN(CCC(c2ccccc2)c2ccccc2)Cc2ccc(C(F)(F)F)cc2)cc1` [Example 141, 3-(4-{[(3,3-Diphenylpropyl)-(4-trifluoromethylbenzyl)amino]methyl}benzoylamino)propionic acid]: the inhibition at 1 µM is above 50%. Turning to `O=C(O)CCCOc1ccc(CN(C(=O)Nc2cc(C(=O)O)cc(C(=O)O)c2)c2ccc(C3CCCCC3)cc2)cc1` [Example 220, 5-[3-[4-(3-Carboxypropoxy)benzyl]-3-(4-cyclohexylphenyl)ureido]isophthalic acid], the inhibition at 1 µM was above 50%.

With `O=C(O)CCNC(=O)c1ccc(CN(C(=O)NCOc2ccc3ccccc3c2)c2ccc3c(c2)OC(F)(F)C(F)(F)O3)cc1` [Example 205, 3-{4-[3-(Naphthalen-2-yloxymethyl)-1-(2,2,3,3-tetrafluoro-2,3-dihydro-benzo[1,4]dioxin-6-yl)ureidomethyl]benzoylamino}propionic acid], the inhibition at 1 µM was above 50%. The same measure, in the same setting: to `CC(C)(C)C1CCC(N(Cc2ccc(C(=O)Nc3ccc(O)c([N+](=O)[O-])c3)cc2)C(=O)Nc2cc(Cl)cc(Cl)c2)CC1` (stereo not shown) [Example 169, 4-[1-(4-tert-Butylcyclohexyl)-3-(3,5-dichlorophenyl)ureidomethyl]-N-(4-hydroxy-3-nitrophenyl)benzamide] belongs above 50%; to `O=C(O)CCN1C(=O)c2ccc(CN(C(=O)Nc3ccc(Cl)c(C(F)(F)F)c3)c3ccc4nc(S)sc4c3)cc2C1=O` [Example 229, 3-{5-[3-(4-Chloro-3-trifluoromethylphenyl)-1-(2-mercaptobenzothiazol-6-yl)ureidomethyl]1,3-dioxo-1,3-dihydro-isoindol-2-yl}propionic acid], above 50%.

As for `O=C(O)CCNC(=O)c1ccc(CN(C(=O)Nc2ccc(C(=O)O)cc2)c2ccc3c(c2)OCO3)cc1` [Example 184, 4-{3-(Benzo[1,3]dioxo-5-yl)-3-[4-(2-carboxyethylcarbamoyl)benzyl]ureido}benzoic acid], the inhibition at 1 µM is above 50%. As for `O=C(O)CCNC(=O)c1ccc(CN(C(=O)Nc2ccc(Cl)c(C(F)(F)F)c2)[C@@H](CO)CC2CCCCC2)cc1` (stereo in doubt) [Example 189, 3-{4-[3-(4-Chloro-3-trifluoromethylphenyl)-1-(2-cyclohexyl-1-hydroxymethylethyl)ureidomethyl]benzoylamino}propionic acid], the inhibition at 1 µM was above 50%. On to `CC(C)(C)C1CCC(N(Cc2ccc(C(=O)Nc3ccc4c(c3)OCCO4)cc2)C(=O)Nc2ccc(OC(F)(F)F)cc2)CC1` (stereo not shown) [Example 161, 4-[1-(4-tert-Butylcyclohexyl)-3-(4-trifluoromethoxyphenyl)ureidomethyl]-N-(2,3-dihydro-1,4-benzodioxin-6-yl)benzamide], for which the inhibition at 1 µM is above 50%. `CC1(C)C2CCC(CN(Cc3ccc(OCCCC(=O)O)cc3)C(=O)Nc3ccc(OC(F)(F)F)cc3)C1C2` (stereo not shown) [Example 214, 4-{4-[1-(6,6-Dimethylbicyclo[3.1.1]hept-2-ylmethyl)-3-(4-trifluoromethoxyphenyl)ureidomethyl]phenoxy}butyric acid]: the inhibition at 1 µM is above 50%. On the same count and under the same terms, for `CC(C)(C)C1CCC(N(Cc2ccc(C(=O)NCCC(=O)O)cc2)C(=O)Nc2cccc(SC(F)(F)F)c2)CC1` (stereo not shown) [Example 199, 3-{4-[1-(4-tert-Butylcyclohexyl)-3-(3-trifluoromethylsulfanylphenyl)ureidomethyl]benzoylamino}propionic acid] the value was above 50%; for `COc1ccc2nc(N(Cc3ccc(OCCCC(=O)O)cc3)C(=O)Nc3ccc(Cl)c(C(F)(F)F)c3)sc2n1` [Example 221, 4-{4-[3-(4-Chloro-3-trifluoromethylphenyl)-1-(5-methoxythiazolo[5,4-b]pyridin-2-yl)ureidomethyl]phenoxy}butyric acid], above 50%; for `CC(C)(C)C1CCC(N(Cc2ccc(C(=O)NCCC(=O)O)o2)C(=O)Nc2ccc(Cl)c(C(F)(F)F)c2)CC1` (stereo not shown) [Example 213, 3-({5-[1-(4-tert-Butylcyclohexyl)-3-(4-chloro-3-trifluoromethylphenyl)ureidomethyl]furan-2-carbonyl}amino)propionic acid], above 50%. Same read-out and setting: for `O=C(O)CCNC(=O)c1ccc(CN(C(=O)Nc2cccc(SC(F)(F)F)c2)c2ccc(C3CCCCC3)cc2)cc1` [Example 202, 3-{4-[1-(4-Cyclohexylphenyl)-3-(3-trifluoromethylsulfanylphenyl)ureidomethyl]benzoylamino}propionic acid] the value was above 50%. The same measure, in the same setting: for `CC(C)(C)C1CCC(N(Cc2ccc(C(=O)Nc3ccc4c(c3)C(=O)NC4=O)cc2)C(=O)Nc2cc(Cl)cc(Cl)c2)CC1` (stereo not shown) [Example 171, 4-[1-(4-tert-Butylcyclohexyl)-3-(3,5-dichlorophenyl)ureidomethyl]-N-(1,3-dioxo-2,3-dihydro-1H-isoindol-5-yl)benzamide] the value was above 50%; for `O=C(O)CCCOc1ccc(CN(C(=O)Nc2ccc(Cl)c(C(F)(F)F)c2)C2C[C@H]2c2ccccc2)cc1` (stereo in doubt) [Example 223, 4-{4-[3-(4-Chloro-3-trifluoromethylphenyl)-1-(2-phenylcyclopropyl)ureidomethyl]phenoxy}butyric acid], above 50%.

The values above are taken from patent US6875760B2 (Novo Nordisk A/S, priority 1999, dated 2005).
